Common to all, as to type: biochemical
One test concerns the target PKC delta kinase (Homo sapiens, UniProt Q05655). Put plainly: PKC delta kinase inhibition, coupled-enzyme NADH absorbance assay (Ki). As to conditions: 150 μM ATP, 46 nM PKC delta, 30° C.; read-out: Ki PKC delta. As for the experimental part:
(§1) An assay buffer solution was prepared which consisted of 100 mM HEPES (pH 7.5), 10 mM MgCl2, 25 mM NaCl, 0.1 mM EDTA and 0.01% Brij. […] To 16 μL of this enzyme buffer, in a 384 well plate, was added 1 μL of VRT stock solution in DMSO. The mixture was allowed to equilibrate for 10 mins at 30° C. […] Ki values were calculated from initial rate data by non-linear regression using the Prism software package (Prism 4.0a, Graphpad Software, San Diego, Calif.).

The next test has as its target PKC alpha kinase (Homo sapiens, UniProt P17252). Put plainly: PKC alpha kinase inhibition, coupled-enzyme NADH absorbance assay (Ki). As to conditions: 130 μM ATP, 4.5 nM PKC alpha, 30° C.; read-out: Ki PKC alpha. As for the experimental part: as §1, with “EDTA, 100 μM CaCl2” for “EDTA”, “C. The enzyme reaction was initiated by the addition of 16 μL stock ATP solution prepared in assay buffer to a final assay concentration of 130 μM. Initial rate data was determined from the rate of change of absorbance at 340 nm (corresponding to stoichiometric consumption of NADH) using a Molecular Devices Spectramax plate reader (Sunnyvale, Calif.) over 15 mins at 30° C.” for “C.”

Another test has as its target PKC theta kinase (Homo sapiens, UniProt Q04759). Put plainly: PKC theta kinase inhibition, coupled-enzyme NADH absorbance assay (Ki). As to conditions: 240 μM ATP, 18 nM PKC theta, 30° C.; read-out: Ki PKC theta. As for the experimental part:
An assay buffer solution was prepared which consisted of 100 mM HEPES (pH 7.5), 10 mM MgCl2, 25 mM NaCl, 0.1 mM EDTA and 0.01% Brij. […] To 60 μL of this enzyme buffer, in a 384 well plate, was added 2 μL of VRT stock solution in DMSO. The mixture was allowed to equilibrate for 10 mins at 30° C. […] Ki values were calculated from initial rate data by non-linear regression using the Prism software package (Prism 4.0a, Graphpad Software, San Diego, Calif.).

Each structure is given as a SMILES string.

Chain of PKC theta kinase (Q04759 whole entry): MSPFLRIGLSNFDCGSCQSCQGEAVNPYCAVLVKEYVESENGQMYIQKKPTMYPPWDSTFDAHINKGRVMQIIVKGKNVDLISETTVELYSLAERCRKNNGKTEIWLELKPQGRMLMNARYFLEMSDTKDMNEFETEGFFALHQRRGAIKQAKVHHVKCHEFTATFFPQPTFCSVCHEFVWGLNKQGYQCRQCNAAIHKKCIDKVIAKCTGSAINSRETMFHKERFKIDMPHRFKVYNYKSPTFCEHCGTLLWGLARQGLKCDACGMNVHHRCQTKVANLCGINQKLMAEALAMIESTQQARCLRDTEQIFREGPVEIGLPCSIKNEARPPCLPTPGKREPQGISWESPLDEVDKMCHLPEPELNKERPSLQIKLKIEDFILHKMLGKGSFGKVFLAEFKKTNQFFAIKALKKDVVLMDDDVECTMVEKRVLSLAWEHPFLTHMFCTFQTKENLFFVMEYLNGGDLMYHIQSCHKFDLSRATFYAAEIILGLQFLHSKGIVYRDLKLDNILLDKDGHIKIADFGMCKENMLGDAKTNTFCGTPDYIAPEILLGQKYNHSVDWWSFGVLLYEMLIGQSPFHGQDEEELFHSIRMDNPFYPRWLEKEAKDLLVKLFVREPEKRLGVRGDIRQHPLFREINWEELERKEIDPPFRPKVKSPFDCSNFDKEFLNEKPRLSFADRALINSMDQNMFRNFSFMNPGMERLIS
Chain of PKC delta kinase (Q05655 whole entry): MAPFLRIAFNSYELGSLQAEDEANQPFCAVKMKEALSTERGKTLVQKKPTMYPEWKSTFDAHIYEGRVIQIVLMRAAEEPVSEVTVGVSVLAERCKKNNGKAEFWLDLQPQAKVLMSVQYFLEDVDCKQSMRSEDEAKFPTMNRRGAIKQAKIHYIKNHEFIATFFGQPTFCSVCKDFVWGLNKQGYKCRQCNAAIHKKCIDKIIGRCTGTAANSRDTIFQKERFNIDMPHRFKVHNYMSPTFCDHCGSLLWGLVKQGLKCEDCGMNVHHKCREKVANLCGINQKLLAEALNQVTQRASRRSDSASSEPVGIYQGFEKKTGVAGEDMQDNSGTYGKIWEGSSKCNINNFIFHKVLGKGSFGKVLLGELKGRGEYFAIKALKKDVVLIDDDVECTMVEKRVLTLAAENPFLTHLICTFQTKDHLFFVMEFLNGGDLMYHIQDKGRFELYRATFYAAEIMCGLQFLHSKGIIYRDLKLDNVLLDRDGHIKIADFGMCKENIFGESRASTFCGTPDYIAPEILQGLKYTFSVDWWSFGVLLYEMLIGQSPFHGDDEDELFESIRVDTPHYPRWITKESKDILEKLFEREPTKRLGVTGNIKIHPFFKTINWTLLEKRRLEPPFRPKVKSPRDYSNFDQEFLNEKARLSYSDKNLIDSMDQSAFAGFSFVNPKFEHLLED

Regarding `CCC(C)(CN)c1cccc(-c2ccnc3[nH]nc(C(F)(F)F)c23)c1` (stereo not drawn) [Compound 213, 2-methyl-2-(3-(3-(trifluoromethyl)-1H-pyrazolo[3,4-b]pyridin-4-yl)phenyl)butan-1-amine], the Ki at PKC delta kinase, on PKC alpha kinase and on PKC theta kinase was less than 50 nM in each case.
Regarding `CC/C=C\C1(c2cccc(-c3ccnc4[nH]ncc34)c2)CCNC1` (stereo not drawn) [Compound 198], the Ki at PKC delta kinase is less than 500 nM; at PKC alpha kinase, less than 500 nM; at PKC theta kinase it was less than 50 nM.
For the compound `Cc1cc(-c2ccnc3[nH]nc(C4CC4)c23)cc(C2(CN)CC2)c1` [Compound 268], the Ki on PKC delta kinase was less than 500 nM; at PKC alpha kinase, less than 500 nM; at PKC theta kinase, less than 50 nM.
For the compound `N#CCC1(c2cccc(-c3ccnc4[nH]ncc34)c2)CNC1` [Compound 192], the figures for the Ki at PKC delta kinase, on PKC alpha kinase and on PKC theta kinase were less than 500 nM, less than 500 nM and less than 50 nM, respectively.
On to `CCC(C)(C#N)c1cc(C=O)cc(-c2ccnc3[nH]ncc23)c1` (stereo not drawn) [Compound 120], for which the Ki on PKC delta kinase is more than 2000 nM; at PKC alpha kinase it was more than 1200 nM; on PKC theta kinase, less than 500 nM.
For `C#CCC(C)(CN)c1cccc(-c2ccnc3[nH]ncc23)c1` (stereo not drawn) [Compound 135], in that order: less than 50 nM, less than 50 nM and less than 50 nM.
For `CCC(C)(C#N)c1cc(-c2ccnc3[nH]ncc23)cc(C(F)F)c1` (stereo not drawn) [Compound 110], in that order: more than 2000 nM, less than 500 nM and less than 50 nM.
For `COC(CN)c1cc(C)cc(-c2ccnc3[nH]ncc23)c1` (stereo not drawn) [Compound 248], in that order: less than 2800 nM, less than 2800 nM and less than 500 nM.
Regarding `CCC1(c2cccc(-c3ccnc4[nH]ncc34)c2)CCNC1` (stereo not drawn) [Compound 194], the Ki on PKC delta kinase is less than 500 nM; at PKC alpha kinase, less than 500 nM; on PKC theta kinase, less than 50 nM.
In the case of `CC(C)(N)CCc1cc(-c2ccnc3[nH]nc(C(F)(F)F)c23)cc(C2(C#N)CC2)c1` [Compound 317], the Ki at PKC delta kinase is more than 1200 nM; on PKC alpha kinase, more than 1200 nM; on PKC theta kinase, less than 50 nM.
Take `CCC(N)c1cccc(-c2ccnc3[nH]nc(C(F)(F)F)c23)c1` (stereo not drawn) [Compound 309]: the Ki at PKC delta kinase was less than 2800 nM; on PKC alpha kinase, less than 2800 nM; on PKC theta kinase, less than 50 nM.
As to `CC(CN)(Cc1ccccc1)c1cccc(-c2ccnc3[nH]ncc23)c1` (stereo not drawn) [Compound 149], the Ki at PKC delta kinase was less than 500 nM; on PKC alpha kinase, less than 500 nM; on PKC theta kinase, less than 50 nM.
As to `N#CC1(c2cccc(-c3ccnc4[nH]ncc34)c2)CCCC1` [Compound 74], the figures for the Ki at PKC delta kinase, at PKC alpha kinase and at PKC theta kinase were less than 2800 nM, less than 2800 nM and less than 500 nM, respectively.
In the case of `N#CC(c1cccc(-c2ccnc3[nH]ncc23)c1)N1CCNCC1` (stereo not drawn) [Compound 321], the results for the Ki on PKC delta kinase, at PKC alpha kinase and on PKC theta kinase were more than 1200 nM, more than 1200 nM and less than 500 nM, respectively.
Consider `CCC(C)(CN)c1cccc(-c2ccnc3[nH]nc(C4CC4)c23)c1` (stereo not drawn) [Compound 266], for which the Ki on PKC delta kinase, at PKC alpha kinase and at PKC theta kinase was less than 50 nM in each case.
In the case of `CC(CN)(Cc1cscn1)c1cccc(-c2ccnc3[nH]ncc23)c1` (stereo not drawn) [Compound 170], the results for the Ki on PKC delta kinase, on PKC alpha kinase and on PKC theta kinase were less than 2800 nM, less than 2800 nM and less than 50 nM, respectively.
Regarding `Cc1cc(-c2ccnc3[nH]nc(C(F)(F)F)c23)cc(C2(CN)CCOCC2)c1` [Compound 275], the Ki is less than 500 nM at PKC delta kinase, less than 500 nM at PKC alpha kinase and less than 50 nM at PKC theta kinase.
In the case of `N#CC1(c2cc(CC(N)=O)cc(-c3ccnc4[nH]nc(C(F)(F)F)c34)c2)CC1` [Compound 329], the Ki at PKC delta kinase is more than 1200 nM; on PKC alpha kinase it was more than 1200 nM; on PKC theta kinase it was less than 50 nM.
`CCC(C)(C#N)c1cc(CCC(F)F)cc(-c2ccnc3[nH]ncc23)c1` (stereo not drawn) [Compound 108]: the Ki on PKC delta kinase is more than 2000 nM; at PKC alpha kinase, more than 1200 nM; on PKC theta kinase, less than 500 nM.
On the same counts, the results for `CCC(C)(C#N)c1cc(CC(F)(F)F)cc(-c2ccnc3[nH]ncc23)c1` (stereo not drawn) [Compound 113] are more than 2000 nM, more than 1200 nM and less than 500 nM.
On the same counts, the results for `CCC(O)c1cccc(-c2ccnc3[nH]ncc23)c1` (stereo not drawn) [Compound 77] are more than 2800 nM, more than 2800 nM and less than 2800 nM.
On the same counts, the results for `CC#CCC(C)(C#N)c1cccc(-c2ccnc3[nH]ncc23)c1` (stereo not drawn) [Compound 104] are less than 2800 nM, less than 2800 nM and less than 500 nM.
`CC#CC[C@@](C)(CN)c1cccc(-c2ccnc3[nH]ncc23)c1` [Compound 186]: the Ki at PKC delta kinase is less than 2800 nM; at PKC alpha kinase, less than 2800 nM; at PKC theta kinase, less than 500 nM.
Regarding `CCCc1cc(-c2ccnc3[nH]ncc23)cc(C(C)(C)CN)c1` [Compound 42], the Ki on PKC delta kinase is less than 2800 nM; on PKC alpha kinase it was less than 2800 nM; on PKC theta kinase, less than 500 nM.
Take `OCC1CCc2ccc(-c3ccnc4[nH]ncc34)cc21` (stereo not drawn) [Compound 203, (6-(1H-Pyrazolo[3,4-b]pyridin-4-yl)-2,3-dihydro-1H-inden-1-yl)methanol]: the Ki is more than 2800 nM on PKC delta kinase, more than 2800 nM on PKC alpha kinase and less than 2800 nM on PKC theta kinase.
Regarding `CCCc1cc(-c2ccnc3[nH]ncc23)cc(C2(CC#N)CCC2)c1` [Compound 125], the Ki is more than 2000 nM on PKC delta kinase, more than 1200 nM on PKC alpha kinase and less than 500 nM at PKC theta kinase.
For `CCC(C)(CN)c1cc(CC(C)C)cc(-c2ccnc3[nH]ncc23)c1` (stereo not drawn) [Compound 137], in that order: more than 2800 nM, more than 2800 nM and less than 500 nM.
On the same counts, the results for `CCC(C)(CN)c1cc(CCO)cc(-c2ccnc3[nH]ncc23)c1` (stereo not drawn) [Compound 168] are less than 500 nM, less than 500 nM and less than 50 nM.
On the same counts, the results for `N#CC1(c2cc(CCCN)cc(-c3ccnc4[nH]ncc34)c2)CC1` [Compound 301] are less than 500 nM, less than 2800 nM and less than 50 nM.
`CC#CCC(C)(CN)c1cccc(-c2ccnc3[nH]ncc23)c1` (stereo not drawn) [Compound 155]: the results for the Ki at PKC delta kinase, at PKC alpha kinase and at PKC theta kinase were less than 50 nM, less than 500 nM and less than 50 nM, respectively.
In the case of `CCC(C)(CO)c1cccc(-c2ccnc3[nH]nc(C(F)(F)F)c23)c1` (stereo not drawn) [Compound 318], the Ki on PKC delta kinase was less than 50 nM; at PKC alpha kinase, less than 500 nM; on PKC theta kinase, less than 50 nM.
Turning to `NC1(c2cccc(-c3ccnc4[nH]ncc34)c2)CC1` [Compound 223], the Ki is more than 2000 nM at PKC delta kinase, more than 1200 nM at PKC alpha kinase and less than 2800 nM on PKC theta kinase.
For `N#CC1(c2cc(-c3ccnc4[nH]ncc34)cc(C(F)(F)CN)c2)CC1` [Compound 122], in that order: less than 2800 nM, less than 2800 nM and less than 50 nM.
For `NCC1(c2cccc(-c3ccnc4[nH]nc(C(F)(F)F)c34)c2)COC1` [Compound 305, (3-(3-(3-(trifluoromethyl)-1H-pyrazolo[3,4-b]pyridin-4-yl)phenyl)oxetan-3-yl)methanamine], in that order: less than 500 nM, less than 2800 nM and less than 50 nM.
On the same counts, the results for `CCCc1cc(-c2ccnc3[nH]ncc23)cc(C2(CN)CCCC2)c1` [Compound 147] are more than 2800 nM, more than 2800 nM and less than 500 nM.

Source of the values: patent US8173635B2, “Kinase inhibitors” (Vertex Pharmaceuticals Incorporated, priority 2007, dated 2012).
